Target: human PAD4 (Homo sapiens (Human), UniProt Q9UM07)
Test: In Vitro PAD4 BAEE Biochemical Assay
Details: geometric mean of multiple experiments
Method in brief: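 Deimination of BAEE substrate (3 mM) measured as ammonia via o-phthalaldehyde–DTT isoindole fluorescence, 405/535 nm. Tag-free bacterially expressed human PAD4 at 5 nM with 2 mM calcium chloride, pH 7.6 MOPS buffer, 30 min compound preincubation then 2 h reaction, both at 25 °C.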

[1] = human PAD4, BAEE substrate, 5 nM PAD4, 2 mM calcium chloride, 3 mM BAEE
[2] = recombinant PAD4 5 nM, 2 mM calcium chloride, 3 mM BAEE substrate

human PAD4, sequence (Q9UM07 2-663): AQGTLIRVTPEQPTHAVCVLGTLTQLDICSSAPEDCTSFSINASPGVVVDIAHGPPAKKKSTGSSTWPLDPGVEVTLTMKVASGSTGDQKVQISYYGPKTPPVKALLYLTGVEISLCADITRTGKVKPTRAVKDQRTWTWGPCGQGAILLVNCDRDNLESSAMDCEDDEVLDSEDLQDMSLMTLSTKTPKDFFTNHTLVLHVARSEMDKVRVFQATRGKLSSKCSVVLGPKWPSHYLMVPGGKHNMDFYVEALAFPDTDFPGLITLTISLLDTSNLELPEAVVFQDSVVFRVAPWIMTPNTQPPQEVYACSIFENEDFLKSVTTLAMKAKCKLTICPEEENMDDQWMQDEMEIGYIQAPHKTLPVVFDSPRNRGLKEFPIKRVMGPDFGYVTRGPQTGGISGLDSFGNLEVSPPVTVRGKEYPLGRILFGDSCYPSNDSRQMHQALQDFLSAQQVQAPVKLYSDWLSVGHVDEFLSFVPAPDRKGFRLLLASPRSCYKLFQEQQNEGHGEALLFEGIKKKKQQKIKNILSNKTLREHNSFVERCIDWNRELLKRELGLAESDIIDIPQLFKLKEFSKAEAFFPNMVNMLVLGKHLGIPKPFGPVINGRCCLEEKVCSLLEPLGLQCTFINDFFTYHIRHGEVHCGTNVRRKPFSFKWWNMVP

**Q.** `COc1cc(C(=O)N2C[C@H](N)CC[C@@H]2C)cc2nc(-c3cc4ccc(-c5c(C)ccnc5-c5ccccc5)nc4n3CC3CC3)n(C)c12` [Example 276, ((2S,5R)-5-amino-2-methylpiperidin-1-yl)(2-(1-(cyclopropylmethyl)-6-(4-methyl-2-phenylpyridin-3-yl)-1H-pyrrolo[2,3-b]pyridin-2-yl)-7-methoxy-1-methyl-1H-benzo[d]imidazol-5-yl)methanone] was tested. Which IC50 [1] did it give?
**A.** 423 nM

**Q.** For `COc1nccc(-c2ccccc2)c1-c1ccc2cc(-c3nc4cc(C(=O)N5C[C@H](N)CC[C@@H]5C)cc(OC)c4n3C)n(CC3CC3)c2n1` [Example 277, ((2S,5R)-5-amino-2-methylpiperidin-1-yl)(2-(1-(cyclopropylmethyl)-6-(2-methoxy-4-phenylpyridin-3-yl)-1H-pyrrolo[2,3-b]pyridin-2-yl)-7-methoxy-1-methyl-1H-benzo[d]imidazol-5-yl)methanone], which IC50 [1] is on record?
**A.** 3430 nM

**Q.** `COc1cc(C(=O)N2CCC[C@@H](N)C2)cc2nc(-c3cc4ccc(NC(C)(C)C)nc4n3CC3CC3)n(C)c12` [Example 278, (R)-(3-aminopiperidin-1-yl)(2-(6-(tert-butylamino)-1-(cyclopropylmethyl)-1H-pyrrolo[2,3-b]pyridin-2-yl)-7-methoxy-1-methyl-1H-benzo[d]imidazol-5-yl)methanone] was tested. Which IC50 [1] did it give?
**A.** 9340 nM

**Q.** `COc1cc(C(=O)N2C[C@H](N)CC[C@@H]2C)cc2nc(-c3cc4ccc(N5CCCC5=O)nc4n3CC3CC3)n(C)c12` [Example 279, 1-(2-(5-((2S,5R)-5-amino-2-methylpiperidine-1-carbonyl)-7-methoxy-1-methyl-1H-benzo[d]imidazol-2-yl)-1-(cyclopropylmethyl)-1H-pyrrolo[2,3-b]pyridin-6-yl)pyrrolidin-2-one] was tested. Which IC50 [1] did it give?
**A.** 1180 nM

**Q.** For `COc1cc(C(=O)N2C[C@H](N)CC[C@@H]2C)cc2nc(-c3cc4ccc(N5C(=O)CCC5C)nc4n3CC3CC3)n(C)c12` (stereo partly drawn) [Example 280, 1-(2-(5-((2S,5R)-5-amino-2-methylpiperidine-1-carbonyl)-7-methoxy-1-methyl-1H-benzo[d]imidazol-2-yl)-1-(cyclopropylmethyl)-1H-pyrrolo[2,3-b]pyridin-6-yl)-5-methylpyrrolidin-2-one], which IC50 [1] is on record?
**A.** 531 nM

**Q.** Which IC50 [1] does the source give for `COc1cc(C(=O)N2C[C@H](N)CC[C@@H]2C)cc2nc(-c3cc4ccc(N5C(=O)CCCC5C)nc4n3CC3CC3)n(C)c12` (stereo partly drawn) [Example 281, 1-(2-(5-((2S,5R)-5-amino-2-methylpiperidine-1-carbonyl)-7-methoxy-1-methyl-1H-benzo[d]imidazol-2-yl)-1-(cyclopropylmethyl)-1H-pyrrolo[2,3-b]pyridin-6-yl)-6-methylpiperidin-2-one] here?
**A.** 643 nM

**Q.** For `COc1cc(C(=O)N2C[C@H](N)CC[C@@H]2C)cc2nc(-c3cc4ccc(-n5c(C)cccc5=O)nc4n3CC3CC3)n(C)c12` [Example 282, 1-(2-(5-((2S,5R)-5-amino-2-methylpiperidine-1-carbonyl)-7-methoxy-1-methyl-1H-benzo[d]imidazol-2-yl)-1-(cyclopropylmethyl)-1H-pyrrolo[2,3-b]pyridin-6-yl)-6-methylpyridin-2(1H)-one], which IC50 [1] is on record?
**A.** 146 nM

**Q.** Which IC50 [1] does the source give for `COc1cc(C(=O)N2C[C@H](N)CC[C@@H]2C)cc2nc(-c3cc4ccc(-c5cccnc5-c5ccccc5)nc4n3CC3CC3)n(C)c12` [Example 283, ((2S,5R)-5-amino-2-methylpiperidin-1-yl)(2-(1-(cyclopropylmethyl)-6-(2-phenylpyridin-3-yl)-1H-pyrrolo[2,3-b]pyridin-2-yl)-7-methoxy-1-methyl-1H-benzo[d]imidazol-5-yl)methanone] here?
**A.** 320 nM

**Q.** `COc1cc(C(=O)N2C[C@H](N)CC[C@@H]2C)cc2nc(-c3cc4ccc(N5C(=O)CC[C@@H]5C)nc4n3CC3CC3)n(C)c12` [Example 285, (S)-1-(2-(5-((2S,5R)-5-amino-2-methylpiperidine-1-carbonyl)-7-methoxy-1-methyl-1H-benzo[d]imidazol-2-yl)-1-(cyclopropylmethyl)-1H-pyrrolo[2,3-b]pyridin-6-yl)-5-methylpyrrolidin-2-one] was tested. Which IC50 [1] did it give?
**A.** 322 nM

**Q.** For `COC(=O)N(C)c1ccc2cc(-c3nc4cc(C(=O)N5C[C@H](N)[C@@H]6CC[C@H]5C6)cc(OC)c4n3C)n(CC3CC3)c2n1` [Example 287, methyl (2-(5-((1S,4R,5R)-4-amino-2-azabicyclo[3.2.1]octane-2-carbonyl)-7-methoxy-1-methyl-1H-benzo[d]imidazol-2-yl)-1-(cyclopropylmethyl)-1H-pyrrolo[2,3-b]pyridin-6-yl)(methyl)carbamate], which IC50 [2] is on record?
**A.** 106 nM

**Q.** With `COc1cc(C(=O)N2C[C@H](N)[C@@H]3CC[C@H]2C3)cc2nc(-c3cc4ccc([C@@H](C)NC(=O)[C@@H]5C[C@H]5F)nc4n3CC3CC3)n(C)c12` [Example 288, (1S,2R)-N-((R)-1-(2-(5-((1S,4R,5R)-4-amino-2-azabicyclo[3.2.1]octane-2-carbonyl)-7-methoxy-1-methyl-1H-benzo[d]imidazol-2-yl)-1-(cyclopropylmethyl)-1H-pyrrolo[2,3-b]pyridin-6-yl)ethyl)-2-fluorocyclopropane-1-carboxamide] as the compound, how does the IC50 [2] read?
**A.** 70.8 nM

**Q.** `COc1cc(C(=O)N2C[C@H](N)[C@@H]3CC[C@H]2C3)cc2nc(-c3cc4ccc([C@@H](C)NC(=O)C5(C(F)(F)F)CC5)nc4n3CC3CC3)n(C)c12` [Example 289, N-((R)-1-(2-(5-((1S,4R,5R)-4-amino-2-azabicyclo[3.2.1]octane-2-carbonyl)-7-methoxy-1-methyl-1H-benzo[d]imidazol-2-yl)-1-(cyclopropylmethyl)-1H-pyrrolo[2,3-b]pyridin-6-yl)ethyl)-1-(trifluoromethyl) cyclopropane-1-carboxamide] was tested. Which IC50 [2] did it give?
**A.** 174 nM

**Q.** For `COc1cc(C(=O)N2C[C@H](N)[C@@H]3CC[C@H]2C3)cc2nc(-c3cc4ccc([C@@H](C)NC(=O)C56CC(C5)C6)nc4n3CC3CC3)n(C)c12` [Example 290, N-((R)-1-(2-(5-((1S,4R,5R)-4-amino-2-azabicyclo[3.2.1]octane-2-carbonyl)-7-methoxy-1-methyl-1H-benzo[d]imidazol-2-yl)-1-(cyclopropylmethyl)-1H-pyrrolo[2,3-b]pyridin-6-yl)ethyl)bicyclo[1.1.1] pentane-1-carboxamide], which IC50 [2] is on record?
**A.** 79.2 nM

**Q.** Which IC50 [2] does the source give for `COc1cc(C(=O)N2C[C@H](N)[C@@H]3CC[C@H]2C3)cc2nc(-c3cc4ccc([C@@H](C)NC(=O)C56CC(F)(C5)C6)nc4n3CC3(F)CC3)n(C)c12` [Example 291, N-((R)-1-(2-(5-((1S,4R,5R)-4-amino-2-azabicyclo[3.2.1]octane-2-carbonyl)-7-methoxy-1-methyl-1H-benzo[d]imidazol-2-yl)-1-((1-fluorocyclopropyl)methyl)-1H-pyrrolo[2,3-b]pyridin-6-yl)ethyl)-3-fluorobicyclo[1.1.1] pentane-1-carboxamide] here?
**A.** 91.9 nM

**Q.** With `COc1cc(C(=O)N2C[C@H](N)[C@@H]3CC[C@H]2C3)cc2nc(-c3cc4ccc([C@@H](C)NC(=O)c5ccccc5C(F)(F)F)nc4n3CC3CC3)n(C)c12` [Example 292, N-((R)-1-(2-(5-((1S,4R,5R)-4-amino-2-azabicyclo [3.2.1]octane-2-carbonyl)-7-methoxy-1-methyl-1H-benzo [d]imidazol-2-yl)-1-(cyclopropylmethyl)-1H-pyrrolo[2,3-b]pyridin-6-yl)ethyl)-2-(trifluoromethyl) benzamide] as the compound, how does the IC50 [2] read?
**A.** 128 nM
